What was measured:
cPLA2 = biological target: T1, cPLA2 (Homo sapiens, UniProt P47712); experiment: Coumarin assay (hydrolysis of 7-hydroxycoumarinyl 6-heptenoate); format: biochemical; settings: 60 μM 7-hydroxycoumarinyl 6-heptenoate, 4 μg cPLA2, pH 7.5
T1 sequence (P47712 1-749): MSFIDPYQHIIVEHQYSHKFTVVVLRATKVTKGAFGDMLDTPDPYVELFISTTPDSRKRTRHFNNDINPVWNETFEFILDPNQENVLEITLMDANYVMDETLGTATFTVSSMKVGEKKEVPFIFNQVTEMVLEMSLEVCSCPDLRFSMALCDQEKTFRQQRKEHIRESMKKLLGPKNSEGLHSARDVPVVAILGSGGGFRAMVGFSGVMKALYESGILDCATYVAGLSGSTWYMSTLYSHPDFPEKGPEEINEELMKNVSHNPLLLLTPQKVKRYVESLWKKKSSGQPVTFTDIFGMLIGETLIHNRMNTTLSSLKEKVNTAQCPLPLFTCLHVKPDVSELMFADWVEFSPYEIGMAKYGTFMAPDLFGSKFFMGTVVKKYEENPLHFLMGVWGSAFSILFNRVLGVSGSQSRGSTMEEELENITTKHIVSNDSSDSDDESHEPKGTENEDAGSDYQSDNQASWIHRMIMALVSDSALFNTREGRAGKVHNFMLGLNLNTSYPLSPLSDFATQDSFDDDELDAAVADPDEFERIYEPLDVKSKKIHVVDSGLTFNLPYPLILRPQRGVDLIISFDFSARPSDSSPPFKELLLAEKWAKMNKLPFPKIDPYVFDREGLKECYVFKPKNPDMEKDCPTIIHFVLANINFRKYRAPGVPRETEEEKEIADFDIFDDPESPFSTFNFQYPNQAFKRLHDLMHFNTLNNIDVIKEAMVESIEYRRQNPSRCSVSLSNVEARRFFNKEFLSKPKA
Experimental: Inhibitors were mixed with 200 μL assay buffer (80 mM Hepes, pH 7.5, 1 mM EDTA) containing 60 μM 7-hydroxycoumarinyl 6-heptenoate. The reaction was initiated by adding 4 μg cPLA2 in 50 μL assay buffer. Hydrolysis of the 7-hydroxycounarimyl 6-heptenoate ester was monitored in a fluorometer by exciting at 360 nm and monitoring emission at 460 nm. Enzyme activity is proportional to the increase in emission at 460 nm per minute. In the presence of a cPLA2 inhibitor, the rate of increase is less.

platelet aggregation = experiment: PFA-100 ex vivo platelet aggregation of chow dosed mice; format: in vivo; settings: ApoE knockout mice, 3.3 mg/g chow for 2 days; control 142±16, p<0.02
[1] = Exposure after chow dosing in mice; settings: mouse, in vivo, oral; ApoE knockout mice, chow diet supplemented at 3.3 mg/g chow
[2] = test system: Human platelet aggregation; experiment: Platelet Function Analyzer (PFA-100) study, whole human blood in vitro; format: cell-based; settings: for prolongation of PFA-100 closure time: Collagen/Epinephrine cartridges, 10 minutes incubation, DMSO vehicle 125±13.9 seconds
Experimental: Platelet Function Analyzer (PFA-100®) Study
Human platelet aggregation was also studied using the platelet function analyzer (PFA-100®). […] Tubes were inverted 5 times and the blood was transferred to 15 ml polypropylene conical tubes. […] The manufacturers protocol was followed for the PFA-100 using Collagen/Epinephrine cartridges (0.5% DMSO alone in whole blood gave closure times of 125±13.9 seconds). Maximum closure time is 300 seconds, as set by the manufacturer. […] The blood from two mice was pooled to obtain enough blood (800 μl minimum) to conduct each assay.

Row | Molecule | IC50 (cPLA2) | also measured
1 | 2-{2-[1-Benzhydryl-5-chloro-2-(2-phenylmethanesulfonyl-amino-ethyl)-1H-indol-3-yl]-ethoxy}-benzoic acid [Example 283] | 500 nM | –
2 | 4-[2-(1-benzhydryl-5-chloro-2-{2-[({2-[(3R,5S)-3,5-dimethylmorpholin-4-yl]ethyl}sulfonyl)amino]ethyl}-1H-indol-3-yl)ethoxy]benzoic acid [Example 250] | 2100 nM | –
3 | 4-{2-[1-benzhydryl-5-chloro-2-(2-{[(2,6-dimethylbenzyl)sulfonyl]amino}ethyl)-1H-indol-3-yl]ethoxy}benzoic acid [Example 279] | 160 nM | –
4 | O=C(O)c1ccc(CCCc2c(CCNS(=O)(=O)Cc3ccc(Cl)c(Cl)c3)n(C(c3ccccc3)c3ccccc3)c3ccc(Cl)cc23)cc1 [Example 44, 4-{3-[1-benzhydryl-5-chloro-2-(2-{[(3,4-dichlorobenzyl)sulfonyl]amino}ethyl)-1H-indol-3-yl]propyl}benzoic acid] | – | closure time of the PFA-100, ex vivo (platelet aggregation): 194 ± 49 s; Cmax [1]: ~500 ng/mL
5 | Cc1cccc(C)c1CS(=O)(=O)NCCc1c(CCCc2ccc(C(=O)O)cc2)c2cc(Cl)ccc2n1C(c1ccccc1)c1ccccc1 [Example 52, 4-(3-[1-benzhydryl-5-chloro-2-(2-{[(2,6-dimethylbenzyl)-sulfonyl]amino}ethyl)-1H-indol-3-yl]propyl}benzoic acid] | – | prolongation of PFA-100 closure time [2]: able to prolong the closure time to varying extents; relative potency in PFA-100 closure time ([2]; compared: Examples 44, 52 and aspirin): most potent compound
6 | O=C(O)c1ccc(OCCc2c(CCNS(=O)(=O)Cc3c(Cl)cccc3Cl)n(C(c3ccccc3)c3ccccc3)c3ccc(Cl)cc23)cc1 [Example 73, 4-{2-[1-Benzhydryl-5-chloro-2-(2-{[(2-dichlorobenzyl)sulfonyl]amino}ethyl)-1H-indol-3-yl]ethoxy}benzoic acid] | 300 nM | –
7 | O=C(O)c1ccc(OCCc2c(CCNS(=O)(=O)Cc3cnc(Cl)c(Cl)c3)n(C(c3ccccc3)c3ccccc3)c3ccc(Cl)cc23)cc1 [Example 76] | 400 nM | –
8 | O=C(O)CCc1ccc(S(=O)(=O)CCc2c(CCNS(=O)(=O)Cc3ccccc3Cl)n(C(c3ccccc3)c3ccccc3)c3ccc(Cl)cc23)cc1 [Example 129, 3-[4-({2-[1-Benzhydryl-5-chloro-2-(2-{[(2-chloro-benzyl)sulfonyl]amino}ethyl)-1H-indol-3-yl]ethyl}sulfonyl)phenyl]propanoic acid] | 130 nM | –
9 | NCc1ccccc1S(=O)(=O)NCCc1c(CCCc2ccc(C(=O)O)cc2)c2cc(Cl)ccc2n1C(c1ccccc1)c1ccccc1 [Example 156, 4-(3-{2-[2-({[2-(aminomethyl)phenyl]sulfonyl}amino)ethyl]-1-benzhydryl-5-chloro-1H-indol-3-yl}propyl)benzoic acid] | 160 nM | –
10 | O=C(O)c1ccc(OCCc2c(CCNS(=O)(=O)CCN3CC4CC3CO4)n(C(c3ccccc3)c3ccccc3)c3ccc(Cl)cc23)cc1 (stereo not shown) [Example 251, 4-(2-{1-benzhydryl-5-chloro-2-[2-({[2-(2-oxa-5-azabicyclo[2.2.1]hept-5-yl)ethyl]sulfonyl}amino)ethyl]-1H-indol-3-yl}ethoxy)benzoic acid] | 1500 nM | –
11 | O=C(O)c1ccc(OCCc2c(CCNS(=O)(=O)Cc3ccc(Cl)c(Cl)c3)n(C(c3ccccc3)c3ccccc3)c3ccc(Cl)cc23)cc1F [Example 296, 4-{2-[1-benzhydryl-5-chloro-2-(2-{[(3,4-dichlorobenzyl)sulfonyl]amino}ethyl)-1H-indol-3-yl]ethoxy}-2-fluorobenzoic acid] | – | melting point: 117 to 119 °C
12 | O=C(O)c1ccc(OCCc2c(CCNS(=O)(=O)Cc3ccccc3Cl)n(C(c3ccccc3)c3ccccc3)c3ccc(Cl)cc23)cc1F [Example 297, 4-{2-[1-benzhydryl-5-chloro-2-(2-{[(2-chlorobenzyl)sulfonyl]amino}ethyl)-1H-indol-3-yl]ethoxy}-2-fluorobenzoic acid] | – | melting point: 132 to 135 °C
13 | CC(C)(Cc1ccc(S(=O)(=O)CCc2c(CCNS(=O)(=O)Cc3ccc(Cl)c(Cl)c3)n(C(c3ccccc3)c3ccccc3)c3ccc(Cl)cc23)cc1)C(=O)O [Example 298, 3-[4-({2-[1-benzhydryl-5-chloro-2-(2-{[(3,4-dichlorobenzyl)sulfonyl]amino}ethyl)-1H-indol-3-yl]ethyl}sulfonyl)phenyl]-2,2-dimethylpropanoic acid] | – | melting point: 207 to 208 °C
14 | CC(=O)Oc1ccccc1C(=O)O [aspirin, reference compound] | – | prolongation of PFA-100 closure time [2]: able to prolong the closure time to varying extents

From patent US20080009485A1, “Methods for the use of inhibitors of cytosolic phospholipase A2 in the treatment of thrombosis” (Wyeth, priority 2006, published 2008)
